The target of experiment [1] is T1, ROCKII (1-543) kinase (Homo sapiens, UniProt O75116).
T1 construct: ROCKII (1-543) (62,408 Da) was diluted in assay buffer to a final concentration of 7.5 nM
The experiment can be described thus: Molecular assay: ROCKII (1-543) kinase activity, PKLight ATP detection (luciferin-luciferase, residual ATP). The format is biochemical. The following applies: 750 nM ATP, 500 nM peptide substrate, 7.5 nM kinase, 90 min at 28° C.; read-out: Rock2 IC50. As for the experimental part: The activity of ROCKII (1-543) kinase was measured utilizing Cambrex PKLight ATP Detection Reagent, a homogeneous assay technology using luciferin-luciferase to quantify residual ATP. The assay was performed in 384-well low-volume, white, non-binding surface microtiter plates (Corning). The assay buffer was 25 mM HEPES, pH 7.5, 10 mM MgCl2, 50 mM KCl, 0.2% BSA, 0.01% CHAPS, 100 μM Na3VO4 and 0.5 mM DTT. Test compounds, dissolved in neat DMSO at 500 μg/mL, were serially diluted for dose response for a final starting concentration of 3 μg/mL in 1% DMSO of assay buffer. ROCKII (1-543) (62,408 Da) was diluted in assay buffer to a final concentration of 7.5 nM in a total volume of 15 μL. Positive controls were reaction mixtures containing no test compound; negative controls (blanks) were reaction mixtures containing no kinase. After 15 minutes of pre-incubation of the test compounds with the kinase, a mixture of ATP and peptide substrate ([…]) in assay buffer was added to each well for a final concentration of 750 nM ATP and 500 nM peptide, respectively. After 90 minutes of incubation of the kinase reaction at 28° C. temperature, 10 μL of PKLight ATP Detection Reagent (warmed to room temperature previously) was added to each well. The assay plate was incubated at room temperature for additional 15 minutes and then read on an Analyst in luminescence mode. Dose-response experiments for each of the test compounds were conducted in quadruplet. IC50 values of test compounds represent 50% response of the positive control from the dose-response curve.
Representative compounds of the present invention were tested for activity in this assay and all had IC50 values <10 μM. Preferred compounds have an IC50<1 μM and more preferred compounds have an IC50<0.1 μM in this assay. As examples the following data were obtained for the compounds named below: […]

The conditions of experiment [2]: long term treatment; cited from earlier work.
The conditions of experiment [3]: rat stroke model; cited from earlier work.

Molecules are shown by their SMILES.

T1 sequence (O75116 1-543): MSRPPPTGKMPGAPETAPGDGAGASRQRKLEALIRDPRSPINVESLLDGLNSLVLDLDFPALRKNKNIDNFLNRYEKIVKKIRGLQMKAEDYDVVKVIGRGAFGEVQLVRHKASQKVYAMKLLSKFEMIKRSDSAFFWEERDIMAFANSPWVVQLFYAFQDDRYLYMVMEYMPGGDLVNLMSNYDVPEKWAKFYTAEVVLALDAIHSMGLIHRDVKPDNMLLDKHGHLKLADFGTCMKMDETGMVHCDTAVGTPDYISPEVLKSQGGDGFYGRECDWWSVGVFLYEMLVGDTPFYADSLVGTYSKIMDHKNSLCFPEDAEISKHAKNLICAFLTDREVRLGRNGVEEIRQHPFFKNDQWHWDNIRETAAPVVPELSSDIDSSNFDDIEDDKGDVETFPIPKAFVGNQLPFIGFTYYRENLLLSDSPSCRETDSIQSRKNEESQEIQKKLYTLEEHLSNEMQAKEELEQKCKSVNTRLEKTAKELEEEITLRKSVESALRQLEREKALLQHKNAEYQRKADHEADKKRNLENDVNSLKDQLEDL

By IC50 is commonly meant the midpoint of a concentration-inhibition curve. Turning to `COCCN1CCc2ccc(NC(=O)c3cccc(CNC(=O)c4ccc(OC)c(OC)c4)c3)cc2C1` [3,4-Dimethoxy-N-{3-[2-(2-methoxy-ethyl)-1,2,3,4-tetrahydro-isoquinolin-7-ylcarbamoyl]-benzyl}-benzamide], the IC50 in experiment [1] turned out to be 99 nM.
On the same count and under the same terms, the figure for `COc1ccc(C(=O)NCc2cccc(C(=O)Nc3ccc(CCN4CCCC4)cc3)c2)cc1C` [4-Methoxy-3-methyl-N-{3-[4-(2-pyrrolidin-1-yl-ethyl)-phenylcarbamoyl]-benzyl}-benzamide] is 120 nM.
In the case of `CCCN[C@H]1CCc2nc(NC(=O)c3cccc(CNC(=O)c4ccc(OC)c(Cl)c4)c3)sc2C1` [3-Chloro-4-methoxy-N-[3-((S)-6-propylamino-4,5,6,7-tetrahydro-benzothiazol-2-ylcarbamoyl)-benzyl]-benzamide], in experiment [1], the IC50 was determined as 2 nM.
Same read-out and setting: with `CN1CCc2nc(NC(=O)c3cccc(CNC(=O)Nc4ccc(C#N)cc4)c3)sc2C1` [3-[3-(4-Cyano-phenyl)-ureidomethyl]-N-(5-methyl-4,5,6,7-tetrahydro-thiazolo[5,4-c]pyridin-2-yl)-benzamide] the figure was 10 nM; with `CCN1CCc2ccc(NC(=O)c3cccc(CNC(=O)c4ccc(OC)c(OC)c4)c3)cc2C1` [N-[3-(2-Ethyl-1,2,3,4-tetrahydro-isoquinolin-7-ylcarbamoyl)-benzyl]-3,4-dimethoxy-benzamide], 27 nM.
The same measure, in the same setting: the figure for `COc1ccc(C(=O)NCc2cccc(C(=O)Nc3nc4c(s3)C[C@@H](N3CCOCC3)CC4)c2)cc1OC` [3,4-Dimethoxy-N-[3-((S)-6-morpholin-4-yl-4,5,6,7-tetrahydro-benzothiazol-2-ylcarbamoyl)-benzyl]-benzamide] is 1 nM; for `COc1ccc(C(=O)NCc2cccc(C(=O)Nc3ncc(CCN4CCN(C)CC4)s3)c2)cc1OC` [3,4-Dimethoxy-N-(3-{5-[2-(4-methyl-piperazin-1-yl)-ethyl]-thiazol-2-ylcarbamoyl}-benzyl)-benzamide] it is 20 nM; for `COc1ccc(C(=O)NCc2cccc(C(=O)Nc3cnc4c(c3)CN(C)CC4)c2)cc1OC` [3,4-Dimethoxy-N-[3-(6-methyl-5,6,7,8-tetrahydro-[1,6]naphthyridin-3-ylcarbamoyl)-benzyl]-benzamide] it is 61 nM.
Same read-out and setting: the figure for `COc1ccc(C(=O)NCc2cccc(C(=O)Nc3nc4c(s3)C[C@@H](N3CCS(=O)(=O)CC3)CC4)c2)cc1OC` [N-{3-[(S)-6-(1,1-Dioxo-thiomorpholin-4-yl)-4,5,6,7-tetrahydro-benzothiazol-2-ylcarbamoyl]-benzyl}-3,4-dimethoxy-benzamide] is 13 nM.
Turning to `O=S(=O)(c1cccc2cnccc12)N1CCCNCC1` [fasudil], in experiment [2], the coronary constrictive remodeling entry is given as “promote a regression of coronary constrictive remodeling” and the coronary stenosis entry was “progressively reduce coronary stenosis”. Further, the “infarct size and neurologic deficit” value in experiment [3] was “reduce both the infarct size and neurologic deficit”.
Regarding `COc1ccc(C(=O)NCc2cccc(C(=O)Nc3nc4c(s3)C[C@H](N(C)C)CC4)c2)cc1OC` [N-[3-((R)-6-Dimethylamino-4,5,6,7-tetrahydro-benzothiazol-2-ylcarbamoyl)-benzyl]-3,4-dimethoxy-benzamide], the IC50 in experiment [1] amounted to 1 nM.
Same read-out and setting: with `COc1ccc(C(=O)NCc2cccc(C(=O)Nc3ccc4c(c3)CNC4)c2)cc1OC` [N-[3-(2,3-Dihydro-1H-isoindol-5-ylcarbamoyl)-benzyl]-3,4-dimethoxy-benzamide] the figure was 6 nM.
On the same count and under the same terms, with `COc1ccc(C(=O)NCc2cccc(C(=O)Nc3nc4c(s3)CNCC4)c2)cc1Cl` [3-Chloro-4-methoxy-N-[3-(4,5,6,7-tetrahydro-thiazolo[5,4-c]pyridin-2-ylcarbamoyl)-benzyl]-benzamide] the figure was 4 nM; with `COc1ccc(C(=O)NCc2cccc(C(=O)Nc3ccc4c(c3)CC(N)C4)c2)cc1OC` (centres unmarked) [N-[3-(2-Amino-indan-5-ylcarbamoyl)-benzyl]-3,4-dimethoxy-benzamide], 12 nM; with `COc1ccc(C(=O)NCc2cccc(C(=O)Nc3ccc4c(c3)CCNCC4)c2)cc1OC` [3,4-Dimethoxy-N-[3-(2,3,4,5-tetrahydro-1H-benzo[d]azepin-7-ylcarbamoyl)-benzyl]-benzamide], 15 nM.
On to `COc1ccc(C(=O)NCc2cccc(C(=O)Nc3ccc(OCCN4CCOCC4)cc3)c2)cc1OC` [3,4-Dimethoxy-N-{3-[4-(2-morpholin-4-yl-ethoxy)-phenylcarbamoyl]-benzyl}-benzamide], for which, in experiment [1], the half-maximal inhibitory concentration (IC50) came to 58 nM.
Consider `COc1ccc(C(=O)NCc2cccc(NC(=O)c3nc4c(s3)CNCC4)c2)cc1OC` [4,5,6,7-Tetrahydro-thiazolo[5,4-c]pyridine-2-carboxylic acid {3-[(3,4-dimethoxy-benzoylamino)-methyl]-phenyl}-amide], for which the IC50 in experiment [1] worked out at 22 nM.
`CCCN[C@H]1CCc2nc(N(CCOC)C(=O)c3cccc(CNC(=O)c4ccc(OC)c(Cl)c4)c3)sc2C1` [3-Chloro-4-methoxy-N-{3-[(2-methoxy-ethyl)-((S)-6-propylamino-4,5,6,7-tetrahydro-benzothiazol-2-yl)-carbamoyl]-benzyl}-benzamide]: the IC50 in experiment [1] came out at 72 nM.

The values above are taken from patent US8093266B2, “Rho kinase inhibitors” (Boehringer Ingelheim International GmbH, priority 2007, dated 2012).
